Laboratory results: patent publication US20070196885A1, “Method of determining carbonic anhydrase i activity” (YAMASA CORPORATION, priority 2004, published 2007)

Experiments:
Format in all cases: biochemical
human CAI [1] = biological target: T1, human CAI (Homo sapiens, UniProt P00915); experiment: Acetazolamide-inhibited hydrolase activity (Example 5); conditions: for Absorbance change (CA-intrinsic, inhibited by acetazolamide, 405 nm): 25-μg/mL human CAI solution, 3 mM acetazolamide solution, pH 8, room temperature, five minutes; for reactivity of substrate with CAI relative to reactivity with CAII: used in combination with acetazolamide (Example 5, Table 3)
From the text: (§1) o-Nitrophenyl acetate was employed as a substrate having higher reactivity with CAI than with CAII. As an inhibitor, acetazolamide, which inhibits both CAI and CAII, was used in combination. A reference substrate was produced from p-nitrophenyl acetate—a substrate having low specificity to CAI (reactive with both CAI and CAII)—and the above acetazolamide serving as a CA inhibitor in combination.
(§2) • (1) By use of purified water, a 25-μg/mL human CAI solution and a 5-μg/mL human CAII solution were prepared. • (2) A 3 mM acetazolamide solution was prepared by use of a 30 mM dimethyl malonate buffer (pH 8). Before dissolution in the buffer, acetazolamide had been dissolved in advance in dimethyl sulfoxide (DMSO). Thus, the solution has a DMSO content of 0.15% (v/v). • (3) By use of purified water, a 6 mM o-nitrophenyl acetate solution and a 3 mM p-nitrophenyl acetate solution were prepared. Before dissolution in water, each substrate had been dissolved in advance in acetone. […] Specifically, solutions of (1), (2), and (3) (each 50 μL) were mixed, and the mixture was allowed to react at room temperature for five minutes. Absorbance of the mixture was measured at 405 nm before and after reaction, and change in absorbance (ΔA) was calculated.
(§3) In order to prepare a sample reference and an inhibitor reference, only purified water and 0.15% (v/v) DMSO-containing 30 mM dimethyl malonate buffer were used as reference solutions (1) and (2), respectively. Each of the references was allowed to react in the same manner as above, and absorbance of the mixture was measured, whereby change in absorbance of the reference was determined.
(§4) <Calculation> Change in CA-intrinsic absorbance=[ΔA1−ΔA3]−[ΔA2−ΔA4]; wherein • ΔA1 represents change in absorbance of a sample consisting of solution (1), reference solution (2), and solution (3); • ΔA2 represents change in absorbance of a sample consisting of solutions (1), (2), and (3); • ΔA3 represents change in absorbance of a sample consisting of reference solutions (1) and (2), and solution (3); and • ΔA4 represents change in absorbance of a sample consisting of reference solution (1) and solutions (2) and (3). <Results>

human CAII [2] = biological target: T2, human CAII (Homo sapiens, UniProt P00918); experiment: as above; conditions: 5-μg/mL human CAII solution, 3 mM acetazolamide solution, pH 8, room temperature, five minutes
From the text: as §1, §2, §3, §4

human CAI [3] = biological target: T1, human CAI; experiment: Hydrolase activity with AEBSF and formaldehyde (Example 3); conditions: 25-μg/mL human CAI solution; 9 mM substrate solution; 0.1 mM AEBSF and 50 mM formaldehyde; pH 8, room temperature, five minutes
Description: (§5) o-Nitrophenyl acetate was employed as a substrate having higher reactivity with CAI than with CAII. In addition, 4-(2-aminoethyl)benzenesulfony fluoride (AEBSF) serving as an inhibitor inhibiting a hydrolase other than CA, and formaldehyde serving as an enhancer of the inhibitor were employed.
(§6) • (1) By use of purified water, a 25-μg/mL human CAI solution and a 5-μg/mL human CAII solution were prepared. • (2) A 30 mM dimethyl malonate buffer (pH: 8) including 0.1 mM AEBSF, and 50 mM formaldehyde were provided. • (3) By use of purified water, a 9 mM o-nitrophenyl acetate solution was prepared. Before dissolution in water, the substrate had been dissolved in advance in acetone. […] Absorbance of the mixture was measured at 405 nm before and after reaction, and change in absorbance (ΔA) was calculated.
(§7) In order to prepare a sample reference, only purified water was used as solution (1). The reference was allowed to react in the same manner as above, and absorbance of the mixture was measured at 405 nm before and after reaction, whereby change in absorbance of the reference was determined. The change in absorbance intrinsic to CA was calculated by the following equation:
(§8) <Calculation> Change in CA-intrinsic absorbance=ΔA1−ΔA3; wherein
(§9) ΔA1 represents change in absorbance of a sample consisting of solution (1), solution (2), and solution (3), and […]

human CAII [4] = biological target: T2, human CAII; experiment: as above; conditions: 5-μg/mL human CAII solution; 9 mM substrate solution; 0.1 mM AEBSF and 50 mM formaldehyde; pH 8, room temperature, five minutes
Description: as §5, §6, §7, §8, §9

human CAI [5] = biological target: T1, human CAI; experiment: Iodide-inhibited hydrolase activity, o-nitrophenyl acetate (Example 9); conditions: 25-μg/mL human CAI solution; 9 mM o-nitrophenyl acetate solution; 300 mM potassium iodide solution; pH 8, room temperature, five minutes
Description: (§10) o-Nitrophenyl acetate was used as a substrate having higher reactivity with CAI than with CAII, and in combination, an iodide ion (I^−) was used as a CA inhibitor inhibiting CAI more potently than CAII.
as §6, with “(2) A 300 mM potassium iodide solution was prepared by use of a 30 mM” for “(2) A 30 mM”, “malonate buffer (pH 8). • (3)” for “malonate buffer (pH: 8) including 0.1 mM AEBSF, and 50 mM formaldehyde were provided. • (3)”
as §3, with “water and 30 mM” for “water and 0.15% (v/v) DMSO-containing 30 mM”, “manner as employed above, and” for “manner as above, and”, “was determined. […]” for “was determined.”

human CAII [6] = biological target: T2, human CAII; experiment: as above; conditions: 5-μg/mL human CAII solution; 9 mM o-nitrophenyl acetate solution; 300 mM potassium iodide solution; pH 8, room temperature, five minutes
Description: as §10
as §6, with “(2) A 300 mM potassium iodide solution was prepared by use of a 30 mM” for “(2) A 30 mM”, “malonate buffer (pH 8). • (3)” for “malonate buffer (pH: 8) including 0.1 mM AEBSF, and 50 mM formaldehyde were provided. • (3)”
as §3, with “water and 30 mM” for “water and 0.15% (v/v) DMSO-containing 30 mM”, “manner as employed above, and” for “manner as above, and”, “was determined. […]” for “was determined.”

human CAI [7] = biological target: T1, human CAI; experiment: Hydrolase activity, o-nitrophenyl acetate substrate, no inhibitor (Example 1); conditions: 25-μg/mL human CAI solution, 9 mM substrate solution, pH 8, room temperature, five minutes
Description: (§11) o-Nitrophenyl acetate was employed as a substrate having higher reactivity with CAI than with CAII, and no inhibitor was used.
(§12) • (1) By use of purified water, a 25-μg/mL human CAI solution and a 5-μg/mL human CAII solution were prepared. • (2) A 30 mM dimethyl malonate buffer (pH: 8) was provided. • (3) By use of purified water, a 9 mM o-nitrophenyl acetate solution was prepared. Before dissolution in water, the substrate had been dissolved in advance in acetone. […] Specifically, solutions of (1), (2), and (3) (each 50 μL) were mixed, and the mixture was allowed to react at room temperature for five minutes. Absorbance of the mixture was measured at 405 nm before and after reaction, and change in absorbance (ΔA) was calculated.
as §7, §8
(§13) ΔA1 represents change in absorbance of a sample consisting of solutions (1), (2), and (3), and
(§14) ΔA3 represents change in absorbance of a sample consisting of reference solution (1) and solutions (2) and (3).

human CAII [8] = biological target: T2, human CAII; experiment: as above; conditions: 5-μg/mL human CAII solution, 9 mM substrate solution, pH 8, room temperature, five minutes
Description: as §11, §12, §7, §8, §13, §14

human CAI [9] = biological target: T1, human CAI; experiment: Iodide-inhibited hydrolase activity, p-nitrophenyl acetate (Example 7); conditions: 25-μg/mL human CAI solution; 3 mM p-nitrophenyl acetate solution; 3 mM potassium iodide solution; pH 8, room temperature, five minutes
Description: (§15) p-Nitrophenyl acetate serving as a substrate reacting with both CAI and CAII and an iodide (I^−) serving as a CA inhibitor inhibiting CAI more potently than CAII were employed in combination.
as §12, with “(2) A 3 mM potassium iodide solution was prepared by use of a 30 mM” for “(2) A 30 mM”, “malonate buffer (pH 8). • (3)” for “malonate buffer (pH: 8) was provided. • (3)”, “water, a 3 mM p-nitrophenyl” for “water, a 9 mM o-nitrophenyl”, “3 mM p-nitrophenyl acetate solution” for “9 mM o-nitrophenyl acetate solution”
as §3, with “water and 30 mM” for “water and 0.15% (v/v) DMSO-containing 30 mM”, “manner as employed above, and” for “manner as above, and”, “was determined. […]” for “was determined.”

human CAII [10] = biological target: T2, human CAII; experiment: as above; conditions: 5-μg/mL human CAII solution; 3 mM p-nitrophenyl acetate solution; 3 mM potassium iodide solution; pH 8, room temperature, five minutes
Description: as §15
as §12, with “(2) A 3 mM potassium iodide solution was prepared by use of a 30 mM” for “(2) A 30 mM”, “malonate buffer (pH 8). • (3)” for “malonate buffer (pH: 8) was provided. • (3)”, “water, a 3 mM p-nitrophenyl” for “water, a 9 mM o-nitrophenyl”, “3 mM p-nitrophenyl acetate solution” for “9 mM o-nitrophenyl acetate solution”
as §3, with “water and 30 mM” for “water and 0.15% (v/v) DMSO-containing 30 mM”, “manner as employed above, and” for “manner as above, and”, “was determined. […]” for “was determined.”

[11] = 6 mM o-nitrophenyl acetate solution
[12] = 3 mM p-nitrophenyl acetate solution

T1 sequence (P00915 whole entry): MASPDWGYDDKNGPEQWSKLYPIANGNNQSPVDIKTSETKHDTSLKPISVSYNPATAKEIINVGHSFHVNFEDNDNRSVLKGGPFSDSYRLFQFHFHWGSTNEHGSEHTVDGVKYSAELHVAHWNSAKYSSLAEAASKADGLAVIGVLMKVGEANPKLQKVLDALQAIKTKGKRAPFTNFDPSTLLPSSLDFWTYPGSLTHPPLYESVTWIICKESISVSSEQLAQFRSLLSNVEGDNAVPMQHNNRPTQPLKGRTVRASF

Row | Absorbance change (CA-intrinsic, inhibited by acetazolamide, 405 nm) (human CAI [1]; [11]) | Absorbance change (CA-intrinsic, inhibited by acetazolamide, 405 nm) (human CAII [2]; [11]) | Absorbance change (CA-intrinsic, 405 nm) (human CAI [3]) | Absorbance change (CA-intrinsic, 405 nm) (human CAII [4]) | Absorbance change (CA-intrinsic, inhibited by iodide, 405 nm) (human CAI [5]) | Absorbance change (CA-intrinsic, inhibited by iodide, 405 nm) (human CAII [6]) | Absorbance change (CA-intrinsic, 405 nm) (human CAI [7]) | Absorbance change (CA-intrinsic, 405 nm) (human CAII [8]) | Absorbance change (CA-intrinsic, inhibited by acetazolamide, 405 nm) (human CAI [1]; [12]) | Absorbance change (CA-intrinsic, inhibited by acetazolamide, 405 nm) (human CAII [2]; [12]) | Absorbance change (CA-intrinsic, inhibited by iodide, 405 nm) (human CAI [9]) | Absorbance change (CA-intrinsic, inhibited by iodide, 405 nm) (human CAII [10]) | SMILES | reactivity of substrate with CAI relative to reactivity with CAII (human CAI [1])
1 | 0.285 | 0.004 | 0.329 | 0.008 | 0.504 | 0.009 | 0.511 | 0.011 | – | – | – | – | CC(=O)Oc1ccccc1[N+](=O)[O-] [o-Nitrophenyl acetate, o-nitrophenyl acetate] | higher than twice the reactivity with CAII
2 | – | – | – | – | – | – | – | – | 0.283 | 0.162 | 0.052 | 0.005 | CC(=O)Oc1ccc([N+](=O)[O-])cc1 [p-Nitrophenyl acetate, p-nitrophenyl acetate] | lower than twice the reactivity with CAII
